For series [1], the system named is TZM-bl cells. Put plainly: MTT cytotoxicity assay. It is filed as cell-based. The procedure: (§1) The in vitro cytotoxic effect of the di-halogenated compounds on TZM-bl cells was determined with the MTT (3-(4,5-Dimethylthiazol-2-yl)-2,5-diphenyltetrazolium bromide) assay (Sigma-Aldrich, St. Louis, MO, USA). For this purpose, 1.2 × 10^5 cells/well were seeded in 96-well plates, which were incubated at 37 °C and 5% CO2 for 24 h. DMEM was used as a negative control and serial two-fold dilutions of the compounds were performed at 9.37 to 300 μM in DMEM supplemented with 5% FBS. A total of 100 μL/well of each dilution was added and incubated for 48 h. Subsequently, the cells were washed 2 times with 1X PBS, and 30 μL of MTT solution (2 mg/mL) was added and incubated for 2 h at 37 °C, in a light-protected culture. Then, 100 µL of DMSO was added to dissolve the formazan crystals, placed in shaking for 15 min, and absorbance reading was performed at 570 nm, using the Microplate Spectrophotometer (Thermo Scientific™ Multiskan™ GO, Waltham, MA, USA). Two independent experiments evaluated each experimental condition in quadruplicate (n = 8). The percentage of viability was calculated concerning the absorbance of the controls without a compound (100% viability). The 50% cytotoxic concentration was defined as the concentration of each compound that can reduce cell viability to 50% of the untreated cell control. CC50 was calculated and analyzed with GraphPad Prism version 8.0.1 (GraphPad Software, Inc., San Diego, CA, USA).
Background: Tetrazolium assays rely on reduction of a dye to a coloured formazan, in cell work by metabolically active cells.

For series [2], the system named is PBMC. Kind of series: Viability assay of PBMC, flow cytometry with viability dye. The class given is cell-based, Human. The note with it: PBMCs. The procedure: (§2) PBMCs were thawed and let in the culture in RPMI with 10% fetal bovine serum (FBS) (Gibco, Grand Island, NY, USA) for 24 h before each experiment. Cells were stimulated for 48 h with 8 μg/mL of Phytohemagglutinin-PHA (Sigma-Aldrich, St. Louis, MO, USA) and 50 UI/mL of IL-2 (Peprotech, Rocky Hill, CT, USA). In the presence of various concentrations of di-halogenated compounds derived from L-Tyrosine, 2 × 10^5 cells per well were treated and resuspended in 200 µL of fresh medium with 20 UI/mL of IL-2 and incubated in 96-well culture plates for 7 days. After 7 days post-treatment, cell viability was determined using flow cytometry. Briefly, cells were stained with fixable viability dye eFluor 506 (eBioscience, Leicestershire, UK) as detailed in the manufacturer’s protocol for 30 min in the dark. Later, cells were washed and resuspended in PBS, and the percentage of viable cells was measured instead in the LS Fortessa cytometer (BD Biosciences, Franklin Lakes, NJ, USA). Data were analyzed using FlowJo version 10.5.3 (FlowJo, LLC, Ashland, OR, USA).
In general terms: A flow cytometer gives signals particle by particle.

In series [3] the test system is HIV-1 BaL (R5). Kind of series: Anti-HIV activity in infected TZM-bl cells (luciferase), pre- and post-infection treatment. The class given is cell-based, Human Immunodeficiency Virus Type 1 (HIV-1). The note with it: for IC50: 48 h, HIV-1 BaL (R5), luciferase; for SI: selectivity index against HIV-1 BaL (CC50 and IC50 of Table 3). The procedure:
(§3) TZM-bl cells were plated in a flat-bottom 96-well plate (Corning Inc., Corning, New York, NY, USA) at the concentration of 1.2 × 10^5 cells/well and incubated for 24 h at 37 °C before the addition or not of each compound at non-cytotoxic concentrations (pre-infection treatment). Then, 1 h later the treatment was removed, and the infection was performed by adding 10 ng/mL of HIV-1IIIB p24 (X4) or 2 ng/mL of HIV-1 BaL (R5). After 3 h, the virus was removed and washed, and the compound dilutions were added again (post-infection treatment). Additionally, three wells were left for the negative control (cells without treatment or infection), the positive control of infection (cells infected with the virus without treatment), and the positive control of inhibition (AZT). Antiviral activity was quantified 48 h after treatment by measuring luciferase activity, which is directly proportional to the number of infectious virus particles in the sample [23]. The luciferase activity was quantified via luminescence emitted by the cells using Bright-GloTM Luciferase Assay System (Promega Corp., Madison, WI, USA), following the manufacturer’s instructions. Briefly, 100 μL of the reagent was added to 100 μL of TZM-bl cells and incubated for at least 2 min, protected from light. Relative light units (RLUs) were measured using the multi-mode plate reader (Thermo ScientificTM VarioskanTM LUX). Each experimental condition was performed in triplicate in two independent experiments (n = 6). The percentage inhibition was calculated as follows: 100 − (RLU of treated cells − RLU of uninfected cells/RLU of infection control − RLU of uninfected cells) × 100.

Series [4] concerns HIV-1IIIB (X4). The description is as above. It is filed as cell-based, Human Immunodeficiency Virus Type 1 (HIV-1). As to conditions: for inhibition at 18 µM / inhibition at 37 µM / inhibition at 75 µM / inhibition at 150 µM / IC50: TZM-bl cells; for inhibition at 18 µM / inhibition at 37 µM / inhibition at 75 µM / inhibition at 150 µM: read-out: Percentage inhibition of HIV-1IIIB (X4 strain) replication; for IC50: Human immunodeficiency virus 1, HIV-1IIIB (X4), luciferase, 48 h; for SI: selectivity index against HIV-1IIIB (CC50 and IC50 of Table 4). The procedure: as §3

Series [5] concerns HIV-GFP-VSV-G reporter virus. Kind of series: microbe, parasite or virus in culture. It is filed as cell-based, HIV-1.
The subject of series [6] is HIV-1 BaL. Put plainly: Anti-HIV activity in PBMC, intracellular p24 by flow cytometry. The class given is cell-based. The procedure: In the presence of various concentrations of the most bioactive compounds, 1×10^6 PBMCs previously stimulated with 8 μg/mL of PHA and 50UI/mL of IL-2 were treated for 1 h. […] After spinoculation, cells were washed twice with PBS 1x to remove free virions, and then, fresh medium supplemented with 20 UI/mL of IL-2, with or without the di-halogenated compounds derived from L-Tyrosine dilutions, was added. Cells were plated in 96-well culture plates and incubated for 7 days. […] In addition, antiviral activity was also assessed by measuring intracellular p24 in harvested cells. Briefly, cells were stained with fixable viability dye eFluor 506 (eBioscience, Leicestershire, UK), CD3 (UCHT1; Thermo Scientific, Wilmington, DE, USA), CD4 (RPA-T4; BD Biosciences, San Jose, CA, USA), and p24 PE (KC57; Beckman Coulter, Pasadena, CA, USA), as detailed in the manufacturer’s protocol. Later, cells were washed and resuspended in PBS, and the lecture was measured instead in the LS Fortessa cytometer (BD Biosciences, Franklin Lakes, NJ, USA). Data were analyzed using FlowJo version 10.5.3 (FlowJo, LLC, Ashland, OR, USA).

In series [7] the test system is HIV-1 BaL. Put plainly: Anti-HIV activity in PBMC, p24 ELISA of supernatant. The class given is cell-based. As to conditions: Human immunodeficiency virus 1, BAL, PBMC, AZT (10 µM); read-out: inhibition of HIV-1 BaL in PBMC, extracellular p24 ELISA.
The nature of series [8]: MTT cytotoxicity assay. The class given is cell-based. As to conditions: human; TZM-bl cells, MTT, 48 h. As for the experimental part:
as §1

Series [9] can be described thus: Viability assay of PBMC, flow cytometry with viability dye. It is filed as cell-based, Human. As to conditions: human, PBMC stimulated with PHA and IL-2; all concentrations tested (18.75 μM up to 150 μM), 7 days; read-out: viability level on PBMCs. The procedure: as §2
The mark [10] stands for this setting: Human immunodeficiency virus 1, TZM-bl, read-out: percentage inhibition of HIV-GFP-VSV-G replication.
The mark [11] stands for this setting: Human immunodeficiency virus 1, BAL, TZM-bl, TZM-bl cells.
The mark [12] stands for this setting: Human immunodeficiency virus 1, BAL, TZM-bl cells, read-out: Percentage inhibition of HIV-1 BaL replication.
The mark [13] stands for this setting: Human immunodeficiency virus 1, TZM-bl.

Entries after “also recorded” stand apart in the source; their conditions may differ. Bounds are passed on as bounds.

As usually defined, the inhibition is the change of the read-out against control, counted positive when it falls. As usually defined, the CC50 is the concentration at which the toxic effect on the cells reaches its halfway point. A lower CC50 goes with harm at low concentration. One may read the viability as a read-out of living cells in per cent, often relative to untreated cells. In general, IC50 refers to the concentration that gives 50% inhibition. A lower IC50 goes with inhibition by little substance.

As for `Cc1cn([C@H]2C[C@H](N=[N+]=[N-])[C@@H](CO)O2)c(=O)[nH]c1=O` [AZT, Zidovudine, reference compound], the toxicity in words result in [1] is on record as “Neither the viral inhibition control (AZT) nor the solvent (DMSO) was toxic”; in series [2] it was “Neither the viral inhibition control (AZT) nor the solvent (DMSO) proved toxic”. Further, the inhibition at 10 µM in series [3] (Human immunodeficiency virus 1, BAL, TZM-bl, read-out: inhibition of viral infection (HIV-1 BaL)) was over 90%; in series [4] (Human immunodeficiency virus 1, TZM-bl, read-out: inhibition of virus infections (HIV-1IIIB)) it was over 90%; in series [5] (setting [10]), 93.2%; in series [6] (Human immunodeficiency virus 1, BAL, PBMC, AZT (10 µM), positive control, read-out: inhibition of HIV-1 BaL replication in PBMC, flow cytometry (intracellular p24)) it was 99.4%; in [7], over 90%.

As to `COc1c(Br)cc(C[C@@H](C(=O)O)N(C)C)cc1Br` [TODB-2M], half-maximal cytotoxicity in series [8] (CC50 at 48 h) was put at 165 µM. In addition, in series [9], the viability at 7 days is over 90%. Besides, the IC50 was 114 µM in series [3] (setting [11]); about 82.7 µM in [4]; 142 µM in [5] (Human immunodeficiency virus 1, TZM-bl, 48 h). The inhibition at 18 µM in series [3] (setting [12]) stood at 36.3%; in series [4] (setting [13]) it was 22.2%. The figures for the inhibition at 37 µM in [3] (setting [12]) and in series [4] (setting [13]) were 34.1% and -4%, respectively. The inhibition at 75 µM came out at 37.7% in series [3] (setting [12]); 9.9% in [4] (setting [13]); 56.5% in series [6] (Human immunodeficiency virus 1, BAL, PBMC, 168 h, 75 μM, 7 days, read-out: inhibition of HIV-1 BaL replication in PBMC, flow cytometry (intracellular p24)). Besides, the inhibition at 150 µM is 45.8% in series [3] (setting [12]); 95.9% in series [4] (setting [13]); 44.2% in series [5] (setting [10]); over 60% in series [6] (Human immunodeficiency virus 1, BAL, PBMC, 168 h, 150 µM, 7 days, read-out: inhibition of HIV-1 BaL replication in PBMC, flow cytometry (intracellular p24)). In addition, the SI in series [3] was 1.45; in series [4], about 1.99; in series [5] it was 1.16. Also, in [6] (all concentrations, 7 days), the “inhibition of HIV-1 BaL replication in PBMC, flow cytometry (intracellular p24)” value was “over 50%”.

Consider `COc1c(Cl)cc(C[C@@H](C(=O)O)[N+](C)(C)C)cc1Cl` [TODC-3M], for which, in series [8], the CC50 at 48 h worked out at 74.9 µM. The viability at 7 days in [9] was over 90%. Also, in series [3] (setting [12]), the inhibition at 37 µM turned out to be 54.9%, the inhibition at 75 µM was 37.6% and the inhibition at 150 µM was 46.7%. The inhibition at 300 µM in series [3] (Human immunodeficiency virus 1, BAL, 300 µM, TZM-bl cells, read-out: Percentage inhibition of HIV-1 BaL replication) is 59.9%. Further, in [4] (setting [13]), the inhibition at 18 µM was -1.3%, the inhibition at 37 µM is -6.9%, the inhibition at 75 µM turned out to be 26.7% and the inhibition at 150 µM came to 14.9%. Moreover, the “percentage inhibition of HIV-GFP-VSV-G replication” value in series [5] was 19.5%.

Turning to `C[N+](C)(C)CCc1cc(Br)c(O)c(Br)c1` [YDB-3M], the CC50 at 48 h in series [8] is about 101 µM. Moreover, the cytotoxicity level entry in [1] (150 μM, 48 h) is “higher level of cytotoxicity”. The “anti-HIV activity against R5 strain in words” value in series [3] (HIV-1 BaL, TZM-bl cells) is on record as “had no activity; also recorded: did not show significant anti-HIV activity”. Also, in series [3] (setting [12]), the inhibition at 18 µM came out at 7.2% and the inhibition at 37 µM was -10.2%. Also, in series [4] (setting [13]), the inhibition at 18 µM came out at 39.2%, the inhibition at 37 µM is 1.8% and the inhibition at 75 µM is -19.4%. In [4], this compound gave an SI of about 32.65.

Regarding `C[N+](C)(C)CCc1cc(Cl)c(O)c(Cl)c1` [YDC-3M], the cytotoxic concentration (CC50) at 48 h in series [8] turned out to be 39.9 µM. For the same compound, the viability at 7 days in [9] was over 90%. For the same compound, the IC50 in series [3] (TZM-bl cells) was determined as 37.7 µM; in series [3] (setting [11]), 37.2 µM; in series [4], 22.3 µM. Besides, the inhibition at 18 µM in series [3] (setting [12]) was found to be 50.2%; in series [4] (setting [13]), 41%. For the same compound, the inhibition at 37 µM in [3] (setting [12]) is 42.3%; in [4] (setting [13]), -25.7%. Further, the inhibition at 75 µM in series [3] (setting [12]) turned out to be 33.4%; in series [4] (setting [13]), 31.2%. Further, the inhibition at 150 µM in series [3] (setting [12]) was found to be 27.5%; in series [4] (setting [13]), 29.9%; in series [5] (setting [10]), 12.5%. For the same compound, the SI in series [3] amounted to 1.07.

For the origin of these results see publication PMC10605077, “In Vitro and In Silico Antiviral Activity of Di-Halogenated Compounds Derived from L-Tyrosine against Human Immunodeficiency Virus 1 (HIV-1)” (Current Issues in Molecular Biology, 2023).
